Experimental data from patent US4443246A, “Herbicidal pyridyl-ethoxy-phenyl urea derivatives” (Takeda Chemical Industries, Ltd., priority 1981, dated 1984).

Assays:
Toxicity to fishes (TLm) = settings: in vivo
[1] = Toxicity to mammals (LD50, orally in mice); settings: mouse, in vivo, po
Corn = experiment: Phytotoxicity to crop (corn), foliar pot test; type: in vivo, Zea mays L.; settings: 14 days after foliar spray
Procedure: 900 cm^2 -Plastic pots are packed with crop-filed soil and sown with seeds of Red root pigweed (Amaranthus retroflexus L.), Purple lambsquarter (Chenopodium album (L.) var. centrorubrum Makino), Oriental smartweed, (Polygonum Blumei Meisn.), Common purslane (Portulaca oleracea L.), Tall morningglory (Ipomoea purpurea (L.) Roth), Cocklebur (Xanthium strumarium L.), Velvetleaf (Abutilon theophrasti Medic.), Jimson weed (Datura stramonium L.) and Corn (Zea mays L.)
These test plants are grown in a greenhouse for 9-14 days. When the true leaves sprouted, these pots are placed in a chamber of 1000 cm^2, where 10 ml each of solutions each containing a given weight of the test compound is applied to each plant from the above with a small spraygun so that each drug solution is applied to leaves and stalks of the respective plants homogeneously. These pots are then left standing in the greenhouse for 14 days. Then, the above-ground portions of each of the thus treated plants, which have remained non-withering, are collected by cutting, followed by weighing while they are fresh.
The non-withering ratio is calculated on the basis of the corresponding weight of the control (non-treated) plants as 100%. The phytotoxicity and herbicidal effect of the test compound are evaluated on the basis of the following criteria. The test solution is prepared by dissolving the test compound of a given weight in 1 ml of acetone containing 1% of a surface-active agent, Tween 20® (Kao Atlas Co., Japan), which is diluted with deionized water to make the total volume to be 10 ml.
To dissolve or disperse the test compound completely in the acetone, stirring by means of super-sonic wave is employed.
Phytotoxicity to crop (corn) is indicated with the following indexes:
(The indexes 0 and 1 to crop denote the test compound can be practically applicable to crop.)

weeds = settings: prior art, in words; cited from earlier work

Compound	LC50 (Toxicity to fishes (TLm)) [mg/L]	LD50 [1] [mg/kg]	Phytotoxicity Corn (Corn; Application rate 10)	Phytotoxicity Corn (Corn; Application rate 20)	herbicidal activity (weeds)
Cc1cccc(CCOc2ccc(NC(=O)N(C)C)cc2)n1 [Compound No. 1, N,N-dimethyl-N'-[4-[2-(6-methyl-2-pyridyl)ethoxy]phenyl]urea]	≥ 10	≥ 300	0 (None 0)	0 (None 0)	
CON(C)C(=O)Nc1ccc(OCCc2cccc(C)n2)cc1 [Compound No. 3, N-methoxy-N-methyl-N'-[4-[2-(6-methyl-2-pyridyl)ethoxy]phenyl]urea]			1 (Negligible 0.1 to 12.5)	1 (Negligible 0.1 to 12.5)	
CN(C)C(=O)Nc1ccc(Oc2ccc(Cl)cc2)cc1 [chloroxuron, N'-[4-(4-chlorophenoxy)phenyl]-N,N-dimethylurea]					have herbicidal activity
CCc1ccc(CCOc2ccc(NC(=O)N(C)C)cc2)nc1 [Compound No. 2, N,N-dimethyl-N'-[4-[2-(5-ethyl-2-pyridyl)ethoxy]phenyl]urea]			1 (Negligible 0.1 to 12.5)	1 (Negligible 0.1 to 12.5)	
